Measurements published in patent US12187709B2 (Genentech, Inc., priority 2021, dated 2025).

Legend:
c-Cbl = c-Cbl (Homo sapiens (Human), UniProt P22681); assay: C-Cbl LCK Ub TR-FRET assay (C-cbl Lck HTRF); format: biochemical
Method in brief: (§1)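 After the ubiquitination reaction, detection mixture was added and plates incubated 20 min at room temperature before reading. IC50 values were calculated with wells lacking LCK as the low control and DMSO as the high control.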

c-Cbl (residues 47-435) = c-Cbl (residues 47-435) (Homo sapiens (Human), UniProt P22681); assay: c-Cbl SPR assay; format: binding; details: 20° C.
Chain of c-Cbl (residues 47-435) (P22681 47-435): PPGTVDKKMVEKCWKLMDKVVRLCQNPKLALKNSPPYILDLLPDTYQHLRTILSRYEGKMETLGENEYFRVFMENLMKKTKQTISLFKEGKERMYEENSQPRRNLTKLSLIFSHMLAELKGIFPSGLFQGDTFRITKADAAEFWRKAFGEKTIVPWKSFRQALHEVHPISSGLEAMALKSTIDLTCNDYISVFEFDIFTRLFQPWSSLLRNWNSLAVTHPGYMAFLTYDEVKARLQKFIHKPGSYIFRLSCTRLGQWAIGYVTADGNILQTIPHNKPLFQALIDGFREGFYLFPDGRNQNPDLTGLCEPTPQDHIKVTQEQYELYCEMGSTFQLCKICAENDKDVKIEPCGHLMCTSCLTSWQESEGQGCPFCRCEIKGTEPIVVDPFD
Method in brief: (§2)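 SPR, multi-cycle, 6-pt 2-fold series, blanks flanking for double referencing; capture 1300-1500 RU; contact 60 s at 40 μl/min; dissoc. 120-1200 s (~4-5 half-lives). 1:1 fit. Chaser variant: single cycle, 5 conc., top 500 nM, 120 s contact, 450 s dissociation.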

Cbl-b = Cbl-b (Homo sapiens (Human), UniProt Q13191); assay: Cbl-b LCK Ub TR-FRET assay (Cbl-b Lck HTRF); format: biochemical; details: for IC50: Cbl-b LCK Ub TR-FRET; for (fold-selectivity) Cbl-b and C-Cbl Selectivity / fold-selectivity (Cbl-b over C-cbl): ratio C-cbl Lck HTRF IC50 / Cbl-b Lck HTRF IC50
Chain of Cbl-b (Q13191 40-426): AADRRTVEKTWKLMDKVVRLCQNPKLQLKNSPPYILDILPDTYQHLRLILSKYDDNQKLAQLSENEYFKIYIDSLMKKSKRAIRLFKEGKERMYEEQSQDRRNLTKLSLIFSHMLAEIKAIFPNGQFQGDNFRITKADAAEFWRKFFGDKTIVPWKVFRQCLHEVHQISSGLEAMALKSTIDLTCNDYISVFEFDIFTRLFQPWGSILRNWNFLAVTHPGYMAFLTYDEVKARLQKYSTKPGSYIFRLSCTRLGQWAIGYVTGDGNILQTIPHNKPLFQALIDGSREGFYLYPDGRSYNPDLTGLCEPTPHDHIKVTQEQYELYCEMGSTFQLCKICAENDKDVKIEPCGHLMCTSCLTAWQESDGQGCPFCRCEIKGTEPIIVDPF
Method in brief: as §1

[1] = molecular target: Human Cbl-b (residues 40-426) (Homo sapiens (Human), UniProt Q13191); assay: Cbl-b SPR assay; format: binding; details: for Fold of selectivity: C-cbl SPR Kd vs Cbl-b SPR Kd; for Kd: SPR, 20° C.
Chain of Human Cbl-b (residues 40-426) (Q13191 40-426): as above
Method in brief: as §2

Chain of c-Cbl (P22681 47-435): as the sequence (P22681 47-435) above

Row | Compound | IC50 (c-Cbl) | Kd (c-Cbl (residues 47-435)) | IC50 (Cbl-b; Example 121) | (fold-selectivity) Cbl-b and C-Cbl Selectivity (Cbl-b) | Fold of selectivity [1] | Kd [1] | IC50 (Cbl-b) | fold-selectivity (Cbl-b over C-cbl) (Cbl-b)
1 | Cn1cnnc1[C@H](c1cc(Cl)cc(N2Cc3c(cc(CNC4(C)CCC4)cc3C(F)(F)F)C2=O)c1)C1COC1 (single isomer, unassigned) [Compound 409] | 57 nM | 90 nM | 52 nM | 1.1x | 1.4× | 62 nM |  | 
2 | CCNc1cc(N2Cc3c(cc(CNC4(C)CCC4)cc3C(F)(F)F)C2=O)cc([C@]2(c3nncn3C)C[C@H](C)C2)c1 [Compound 90, 2-(3-(ethylamino)-5-((1r,3r)-3-methyl-1-(4-methyl-4H-1,2,4-triazol-3-yl)cyclobutyl)phenyl)-6-(((1-methylcyclobutyl)amino)methyl)-4-(trifluoromethyl)isoindolin-1-one] | 6.6 nM | 0.4 nM |  |  | 2.0× | 0.2 nM | 7.8 nM | 0.83x
3 | C[C@H](NC1(C)CCC1)c1cc(Cl)c2c(c1)C(=O)N(c1cccc([C@]3(c4nncn4C)C[C@H](F)C3)c1)C2 (single isomer, unassigned) [Compound 312] | 27 nM | 28 nM |  |  | 14× | 2 nM | 7.8 nM | 3.5x
4 | CO[C@H]1C[C@](c2cccc(N3Cc4c(cc(CNCC5(CO)CCC5)cc4C(F)(F)F)C3=O)c2)(c2nncn2C)C1 [Compound 489, 6-((((1-(hydroxymethyl)cyclobutyl)methyl)amino)methyl)-2-(3-((1r,3r)-3-methoxy-1-(4-methyl-4H-1,2,4-triazol-3-yl)cyclobutyl)phenyl)-4-(trifluoromethyl)isoindolin-1-one] | 74 nM | 48 nM | 14 nM | 5.3x | 7.8× | 6.2 nM |  | 
5 | Cn1cnnc1C1(c2cccc(N3Cc4c(cc(CNC5(C)CCC5)cc4C(F)(F)F)C3=O)c2)COC1 [Compound 58, 2-(3-(3-(4-methyl-4H-1,2,4-triazol-3-yl)oxetan-3-yl)phenyl)-6-(((1-methylcyclobutyl)amino)methyl)-4-(trifluoromethyl)isoindolin-1-one] | 560 nM | 440 nM |  |  | 3.1× | 140 nM | 280 nM | (2.0x)
6 | CCNc1cc([C@]2(c3nncn3C)C[C@@H](C)C2)cc(N2Cc3c(cc(CNC4(C)CCC4)cc3C(F)(F)F)C2=O)c1F [Compound 337, 2-(3-(ethylamino)-2-fluoro-5-((1s,3s)-3-methyl-1-(4-methyl-4H-1,2,4-triazol-3-yl)cyclobutyl)phenyl)-6-(((1-methylcyclobutyl)amino)methyl)-4-(trifluoromethyl)isoindolin-1-one] | 7.8 nM | 6.5 nM |  |  | 3.4× | 1.9 nM | 6.2 nM | 1.2x
7 | C[C@H]1C[C@@](c2cccc(N3Cc4c(cc(CNC5(C)CCC5)cc4C(F)(F)F)C3=O)c2)(c2nncn2C)O1 [Compound 123, 2-(3-((2R,4S)-4-methyl-2-(4-methyl-4H-1,2,4-triazol-3-yl)oxetan-2-yl)phenyl)-6-(((1-methylcyclobutyl)amino)methyl)-4-(trifluoromethyl)isoindolin-1-one] | 230 nM | 130 nM |  |  | 6.1× | 21 nM | 68 nM | 3.4x
8 | C=C[C@@H](C)Nc1cc(N2Cc3c(cc(CNC4(C)CCC4)cc3C(F)(F)F)C2=O)cc([C@]2(c3nncn3C)C[C@H](OC)C2)c1 (single isomer, unassigned) [Compound 219] | 36 nM | 29 nM |  |  | 6.5× | 4.5 nM | 13 nM | 2.7x
9 | CO[C@H]1C[C@](c2cccc(N3Cc4c(cc(CNCC(C)(C)F)cc4C(F)(F)F)C3=O)c2)(c2nncn2C)C1 [Compound 483, 6-(((2-fluoro-2-methylpropyl)amino)methyl)-2-(3-((1r,3r)-3-methoxy-1-(4-methyl-4H-1,2,4-triazol-3-yl)cyclobutyl)phenyl)-4-(trifluoromethyl)isoindolin-1-one] | 58 nM | 84 nM | 10 nM | 5.8x | 18× | 4.6 nM |  | 
10 | CCNc1cc(N2Cc3c(cc(CNC4(C)CCC4)cc3C(F)(F)F)C2=O)cc([C@]2(c3nncn3C)C[C@@H](OC)C2)c1 [Compound 227, 2-(3-(ethylamino)-5-((1s,3s)-3-methoxy-1-(4-methyl-4H-1,2,4-triazol-3-yl)cyclobutyl)phenyl)-6-(((1-methylcyclobutyl)amino)methyl)-4-(trifluoromethyl)isoindolin-1-one] | 16 nM | 11 nM |  |  | 6.5× | 1.7 nM | 10 nM | 1.6x
11 | CO[C@H]1C[C@@](c2cc(NC3COC3)cc(N3Cc4c(cc(CNC5(C)CCC5)cc4C(F)(F)F)C3=O)c2)(c2nncn2C)C1 [Compound 243, 2-(3-((1s,3s)-3-methoxy-1-(4-methyl-4H-1,2,4-triazol-3-yl)cyclobutyl)-5-(oxetan-3-ylamino)phenyl)-6-(((1-methylcyclobutyl)amino)methyl)-4-(trifluoromethyl)isoindolin-1-one] | 290 nM | 150 nM |  |  | 14× | 11 nM | 64 nM | 4.4x
12 | Cn1cnnc1[C@]1(c2cccc(N3Cc4c(cc(CNC5(C)CCC5)cc4C(F)(F)F)C3=O)c2)C[C@H](CO)C1.O=CO [Compound 99, 2-(3-((1s,3s)-3-(hydroxymethyl)-1-(4-methyl-4H-1,2,4-triazol-3-yl)cyclobutyl)phenyl)-6-(((1-methylcyclobutyl)amino)methyl)-4-(trifluoromethyl)isoindolin-1-one formate] | 320 nM | 230 nM |  |  | 4.8× | 48 nM | 86 nM | 3.7x
13 | CO[C@H]1C[C@](c2cccc(N3Cc4c(cc(CN[C@]5(C)C[C@H](O)C5)cc4C(F)(F)F)C3=O)c2)(c2nncn2C)C1 [Compound 484, 6-((((1s,3S)-3-hydroxy-1-methylcyclobutyl)amino)methyl)-2-(3-((1r,3R)-3-methoxy-1-(4-methyl-4H-1,2,4-triazol-3-yl)cyclobutyl)phenyl)-4-(trifluoromethyl)isoindolin-1-one] | 260 nM | 200 nM | 26 nM | 10x | 13× | 13 nM |  | 
14 | Cl.Cn1cnnc1[C@]1(c2cccc(N3Cc4c(cc(CNC5(C)CCC5)cc4C(F)(F)F)C3=O)c2)C[C@@H](Cl)C1 [Compound 137, 2-(3-((1r,3r)-3-chloro-1-(4-methyl-4H-1,2,4-triazol-3-yl)cyclobutyl)phenyl)-6-(((1-methylcyclobutyl)amino)methyl)-4-(trifluoromethyl)isoindolin-1-one hydrochloride] | 8.5 nM | 2.1 nM |  |  | 8.4× | 0.27 nM | 6.1 nM | 1.4x
15 | COC1CC([C@@H](c2cccc(N3Cc4c(cc(CNC5(C)CCC5)cc4C(F)(F)F)C3=O)c2)c2nncn2C)C1 (single isomer, unassigned) [Compound 133] | 730 nM | 660 nM |  |  | 7.7× | 83 nM | 150 nM | 4.9x
16 | Cn1cnnc1C(c1cccc(N2Cc3c(cc(CNC4(C)CCC4)cc3C(F)(F)F)C2=O)c1)C1CC(F)(F)C1 (racemic) [Compound 145, 2-(3-((3,3-difluorocyclobutyl)(4-methyl-4H-1,2,4-triazol-3-yl)methyl)phenyl)-6-(((1-methylcyclobutyl)amino)methyl)-4-(trifluoromethyl)isoindolin-1-one] | 180 nM | 290 nM |  |  | 14× | 19 nM | 76 nM | 2.4x
17 | Cn1cnnc1[C@]1(c2cccc(N3Cc4c(cc(CNC5(C)CCC5)cc4C(F)(F)F)C3=O)c2)C[C@@H](CC#N)C1 [Compound 89, 2-((1r,3r)-3-(4-methyl-4H-1,2,4-triazol-3-yl)-3-(3-(6-(((1-methylcyclobutyl)amino)methyl)-1-oxo-4-(trifluoromethyl)isoindolin-2-yl)phenyl)-cyclobutyl)acetonitrile] | 98 nM | 4 nM |  |  | 6.6× | 0.6 nM | 41 nM | 2.4x
18 | C[C@@H](NC1(C)CCC1)c1cc(Cl)c2c(c1)C(=O)N(c1cccc([C@]3(c4nncn4C)C[C@@H](F)C3)c1)C2 (single isomer, unassigned) [Compound 288] | 4.9 nM | 0.35 nM |  |  | 3.5× | 0.1 nM | 5.3 nM | 0.92x
19 | Cn1cnnc1[C@@H](c1cccc(N2Cc3c(cc(CNC4(C)CCC4)cc3C(F)(F)F)C2=O)c1)[C@H]1C[C@H](C#N)C1 (single isomer, unassigned) [Compound 139] | 1300 nM | 1000 nM |  |  | 4.6× | 220 nM | 350 nM | 3.6x
